Test results taken from paper PMC6792352, “Limited Chemical Structural Diversity Found to Modulate Thyroid Hormone Receptor in the Tox21 Chemical Library” (Environmental Health Perspectives, 2019).
Read-outs that look alike come from different tables or passages of the source.

Key:
[1] = tested on: thyroid hormone receptor (endogenous TRα and TRβ); assay: GH3-TRE-Ag primary qHTS, luciferase reporter, agonist mode (TOX21_TR_LUC_GH3_Agonist, aeid 803); format: cell-based, rat; settings: for GH3-TRE-Ag AC50 hitc: hit call from tcpl; for AC50: read-out: GH3-TRE-Ag AC50
[2] = tested on: thyroid hormone receptor (endogenous TRα and TRβ); assay: GH3-TRE-Ag-Followup confirmation (TOX21_TR_LUC_GH3_Agonist_Followup, aeid 2226); format: cell-based, rat; settings: for AC50: confirmation, agonist mode, read-out: GH3-TRE-Ag-Followup AC50; for GH3-TRE-Ag-Followup hitc: hit call from tcpl
[3] = molecular target: T1, TRα ligand-binding domain (Homo sapiens, UniProt P10827); assay: TRa-coa LanthaScreen TR-FRET coactivator (SRC-2 peptide) recruitment, agonist (TOX21_TRA_COA_Agonist_Followup_ratio, aeid 2230); format: biochemical; settings: for AC50: cell-free coactivator recruitment, read-out: TRa-coa-Ag AC50; for TRa-coa hitc: hit call from tcpl, agonist; for Emax: read-out: EMax (% of Control) tra-coa-agonist-followup-1
T1 construct: the receptor LBDs expressed as glutathione S-transferase (GST) fusion proteins; purchased
T1 sequence (P10827 163-410 isoform P10827-2 limits assumed, other chains not shown): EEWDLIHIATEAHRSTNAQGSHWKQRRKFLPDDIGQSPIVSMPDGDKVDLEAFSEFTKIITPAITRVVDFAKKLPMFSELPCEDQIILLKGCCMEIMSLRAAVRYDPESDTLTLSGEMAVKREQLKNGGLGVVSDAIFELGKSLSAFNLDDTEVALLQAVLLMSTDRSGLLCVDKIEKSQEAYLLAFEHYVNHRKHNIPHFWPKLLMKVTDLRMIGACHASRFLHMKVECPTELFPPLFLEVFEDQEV

[4] = Global cytotoxicity: eighteen Tox21 cell viability assays; format: cell-based; settings: read-out: Global cytotoxicity AC50 median
[5] = tested on: Tox21 cell viability assays (different cell types); assay: as above; format: cell-based
[6] = tested on: thyroid hormone receptor (TR); assay: Classification of TR actives across characterization assays (TR-Ag / RXR-Ag; TR model binary); settings: for Categorization Code: TR agonist characterization; for Classification: TR-Ag = TR agonist, RXR-Ag = RXR agonist
Summary of the method: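 GH3-TRE qHTS agonist, antagonist and viability modes over 8,305 compounds; 84 candidates rescreened in GH3-TRE-Ag, TRβ- and RXRα-UAS-bla HEK 293T one-hybrid assays, HEK293T viability, and TRα/TRβ coactivator recruitment. Actives classified binary after removing pharmaceuticals.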

GH3-TRE-Luc cell line [7] = tested on: GH3-TRE-Luc cell line
[8] = molecular target: T2, human TRβ ligand-binding domain (Homo sapiens, UniProt P10828); assay: TRb-bla agonist mammalian one-hybrid beta-lactamase assay (TOX21_TRB_BLA_Agonist_Followup_ratio, aeid 2236); format: cell-based; parameters: host or cells: GeneBLAzer UAS-bla HEK 293T; settings: for AC50: HEK 293T one-hybrid, agonist mode, read-out: TRb-bla-Ag AC50; for TRb-bla hitc: hit call from tcpl, agonist; for Emax: read-out: EMax (% of Control) trb-bla-agonist-followup-1
T2 sequence (P10828 217-461 limits assumed): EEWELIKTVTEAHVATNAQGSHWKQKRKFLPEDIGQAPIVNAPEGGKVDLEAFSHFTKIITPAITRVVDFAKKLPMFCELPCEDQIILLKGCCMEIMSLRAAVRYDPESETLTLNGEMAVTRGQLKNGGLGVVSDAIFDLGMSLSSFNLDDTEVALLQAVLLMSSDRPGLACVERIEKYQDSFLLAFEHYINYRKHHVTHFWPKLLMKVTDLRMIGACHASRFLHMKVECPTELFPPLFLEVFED

[9] = molecular target: T2, human TRβ ligand-binding domain; assay: TRb-coa LanthaScreen TR-FRET coactivator (SRC-2 peptide) recruitment, agonist (TOX21_TRB_COA_Agonist_Followup_ratio, aeid 2244); format: biochemical; parameters: host or cells: GeneBLAzer UAS-bla HEK 293T; settings: for AC50: cell-free coactivator recruitment, read-out: TRb-coa-Ag AC50; for TRb-coa hitc: hit call from tcpl, agonist; for Emax: read-out: EMax (% of Control) trb-coa-agonist-followup-1
[10] = GH3-TRE-Via cell viability, CellTiter-Fluor (TOX21_TR_LUC_GH3_Antagonist_viability, aeid 805); settings: rat
human RXRα = molecular target: T3, human RXRα (Homo sapiens, UniProt P19793); assay: RXRa-bla-Ag mammalian one-hybrid beta-lactamase assay (TOX21_TR_RXR_BLA_Agonist_Followup_ratio, aeid 2253); format: cell-based; settings: for AC50: HEK 293T one-hybrid, agonist mode, inactive set to 1,000, read-out: RXRa-bla-Ag AC50; for tr-followup-rxr-bla-agonist-1 hitc: hit call from tcpl
T3 construct: host or cells: GeneBLAzer UAS-bla HEK 293T
T3 sequence (P19793 227-458 limits assumed): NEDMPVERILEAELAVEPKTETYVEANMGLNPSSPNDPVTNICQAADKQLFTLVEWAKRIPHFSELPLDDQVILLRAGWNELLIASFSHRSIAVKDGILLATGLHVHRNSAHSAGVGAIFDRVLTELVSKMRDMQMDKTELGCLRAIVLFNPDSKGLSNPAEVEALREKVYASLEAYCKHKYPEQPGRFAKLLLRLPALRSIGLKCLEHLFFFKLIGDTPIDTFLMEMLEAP

GH3-TRE-Luc cell line [11] = assay: GH3-TRE-Via cell viability, CellTiter-Fluor (TOX21_TR_LUC_GH3_Antagonist_viability, aeid 805); settings: hit call from tcpl
in vitro = settings: rat, gh3-tre-luc cells, AC50 (uM) modified / 1000
[12] = median over 18 Tox21 cell viability assays (Judson et al. 2016, invitrodb_v2)
[13] = read-out: EMax (% of Control) tr-followup-rxr-bla-agonist-1
[14] = # active of 18 total Tox21 viability assays
[15] = median over Tox21 viability assays

Compound | EMax (% of Control) gh3-tre-agonist [1] | GH3-TRE-Ag AC50 hitc [1] | EMax (% of Control) gh3-tre-agonist-followup-1_agonist [2] | AC50 [2] [µM] | GH3-TRE-Ag-Followup hitc [2] | AC50 [3] [µM] | TRa-coa hitc [3] | Emax [3] [%] | AC50 [4, 12] [µM] | Categorization Code [6] | Classification [6] | AC50 [8] [µM] | TRb-bla hitc [8] | AC50 [9] [µM] | TRb-coa hitc [9] | Emax [9] [%] | AC50 at 24 h [10] [µM] | tr-followup-rxr-bla-agonist-1 hitc (human RXRα) | Emax (human RXRα; [13]) [%] | GLOBAL CYTOTOXICITY cytotox.number_Active [5, 14] | further results
CC1=C(/C=C/C(C)=C/C=C/C(C)=C\C(=O)O)C(C)(C)CCC1 [13-cis Retinoic acid, reference compound] | 29.3 % of Control | 1 | 46.3 % of Control | 0.0348 | 1 | > 92 | 0 | -0.319 | 46.3 | RXR-Ag | RXR-Ag | > 92 | 0 | > 92 | 0 | -0.0945 | 81.3 |  |  |  | activity in GH3-TRE agonist assay [1]: partial agonist; EMax in GH3-TRE-Ag assay ([1]; percent of positive control T3): 24 % of control; GLOBAL CYTOTOXICITY cytotox.median [5]: 46.3; GLOBAL CYTOTOXICITY cytotox.number_Active [5]: 5; TR_LUC_GH3_Antagonist_viability hitc (GH3-TRE-Luc cell line [7]; rat, 24 h): 1; activity in TRβ-bla as agonist [8]: not active; Emax [8]: 6.8%; activity in TRb-coa biochemical assay [9]: not active
CC(C)(C)CC(C)(C)c1ccc(O)c(Cc2ccc(Cl)cc2Cl)c1 [Clofoctol, reference compound] | 23.6 % of Control | 1 | 34.4 % of Control | 3 | 1 | 8.92 | 1 | 55.5 | 16.7 | RXR-Ag | RXR-Ag | > 92 | 0 | 8.93 | 1 | 64.9 | 8.04 | 1 | 36.1 | 16 | AC50 (human RXRα): 6.8 µM; Emax (human RXRα; read-out: EMax in RXR assay): 36%; GLOBAL CYTOTOXICITY cytotox.median [5, 15]: 16.7; TR_LUC_GH3_Antagonist_viability hitc (GH3-TRE-Luc cell line [11]): 1
O=C(O)Cc1cc(I)c(Oc2cc(I)c(O)c(I)c2)c(I)c1 [Tetrac, 3,3ʹ,5,5ʹ-tetraiodothyroacetic acid] | 113.5 % of Control | 1 | 123.6 % of Control | 0.006 | 1 | 0.248 | 1 | 153 | 35.7 | TR-Ag | TR-Ag | 0.0209 | 1 | 0.227 | 1 | 122 | 51.3 | 1 | 61.6 | 5 | TR_LUC_GH3_Agonist_EMAX (% Control) ([1]; Table S5): 105.7 % Control; GLOBAL CYTOTOXICITY cytotox.median [5, 15]: 35.7; Emax [8]: 204%; TR_LUC_GH3_Antagonist_viability hitc (GH3-TRE-Luc cell line [11]): 1
N#CC(c1ccc(Cl)cc1)c1c(Cl)cc(-n2ncc(=O)[nH]c2=O)cc1Cl (stereo not shown) [Diclazuril] |  |  |  |  |  |  |  |  |  |  |  |  |  |  |  |  | > 92 |  |  |  | AC50 ([1]; antagonist candidates, inactive samples arbitrarily set to AC50=1,000 μM): > 92 µM; AC50 ([4]; median over 18 Tox21 cell viability assays, inactive set to 1,000): 33 µM; Active in global cytotoxicity assays (%) [5]: 33.3%; active rate in Tox21 viability/cytotoxicity assays [5]: 33%; cytotoxicity in GH3 viability assay (GH3-TRE-Luc cell line [7]): lacked cytotoxicity; CC50 at 24 h (in vitro): > 50 µM
C[C@]12CC[C@H]3C(=CCc4cc(O)ccc43)[C@@H]1CCC2=O [Equilin, reference compound] | 90.8 % of Control | 1 | 6.3 % of Control | > 92 | 0 | > 92 | 0 | 1.7 | > 92 | RXR-Ag | RXR-Ag | > 92 | 0 | > 92 | 0 | -0.4 | 85.1 | 1 | 61.3 | 0 | AC50 (human RXRα): 0.986 µM; GLOBAL CYTOTOXICITY cytotox.median [5, 15]: >92; Emax [8]: 13.5%; TR_LUC_GH3_Antagonist_viability hitc (GH3-TRE-Luc cell line [11]): 1
N[C@@H](Cc1cc(I)c(Oc2cc(I)c(O)c(I)c2)c(I)c1)C(=O)O [Levothyroxine, reference compound] | 117.2 % of Control | 1 | 100.3 % of Control |  | 1 |  | 1 | 171 | > 92 | TR-Ag | TR-Ag |  |  |  |  |  | > 92 | 0 | 21.2 | 0 | AC50 ([1]; primary qHTS, agonist mode, 24 h, top concentration 92 μM): 0.0061 µM; AC50 (human RXRα): 1.36 µM; GLOBAL CYTOTOXICITY cytotox.median [5, 15]: >92; TR_LUC_GH3_Antagonist_viability hitc (GH3-TRE-Luc cell line [11]): 0
